From patent publication US20060116390A1, “Hepatitis c virus inhibitors” (priority 2003, published 2006)
Read-outs that look alike come from different tables or passages of the source.

Test system: HCV proteins in Rep5.1 cells (replicon cell line)
Assay: Inhibitory activity of HCV: cell-based ELISA in replicon cell line Rep5.1 (decrease of HCV proteins)
Parameters: species or system hepatitis C virus
Settings: Rep5.1 cells, 72 hours with drug
Method: In order to, screen and evaluate the anti-HCV therapeutic agents in cell level, the following experiments are carried out using a replicon cell line, Rep5.1 [Lohmann, et al., Replication of subgenomic hepatitis C virus RNAs in a hepatoma cell line. Science 285:110-113 (1999)].
Rep5.1 cells, the replicon cell line, are cultured in DMEM-10 containing 500 μg/ml of G418. The Rep5.1 cells in log phase are suspended by trypsin treatment, and 5000 cells are distributed to each well of a 96-well plate. After 4 hours when the cells are attached to the plate, the serially diluted drug is added to each well. After 48 hours, a part of the treated cells are observed by microscope, and MTT assay is carried out to evaluate the drug toxicity. The cytotoxicity is estimated in percentage based on the control containing no drug. After 72 hours, the remaining cells are fixed by methanol/acetone (50/50, v/v), and the decrease of HCV proteins is measured by using HCV antibody. The extent of decrease is estimated in percentage based on the control containing no drug, and the concentration of drug at which 50% of proteins is decreased is determined to be IC50. The compounds showing activity via this procedure are validated by Western blotting. In order to find out whether the decrease of HCV protein is related to the decrease of replicon RNA, Rep5.1 cell is treated with some selected drugs for 72 hours, RNA is purified, dot blotted, and hybridized with isotope labelled nucleic acid to determine the amounts of actin mRNA and replicon RNA, and finally the amount of RNA is compared.
Plasma samples from 300 persons positive to the hepatitis C antibody test were screened by antibody diagnosis kit produced by LG life Sciences Ltd. (LG HCD3.0 TMB) to select 40 plasma samples having high titer. Replicon cell line and Huh-7 cell line each were cultured in a 96-well cell culture plate, fixed by methanol/acetone (1:1) mixture, and blocked by 3% skimmed milk. The 40 plasma sanples selected above were 100-fold diluted and aided thereto, and the bound antibodies were probed by anti-Human goat antibody (Sigma) to which Horse Radish Peroxidase is attached. As a result, 12 plasma samples having low specificity to Huh-7 cell line, but high specificity to replicon cell line were obtained. These plasma samples were used in the following cell-based ELISA.
Rep5.1 cells were cultured in DMEM-10 containing 500 μg/ml of G418. The Rep5.1 cells in log phase were suspended by trypsin treatment, and 5000 cells were distributed to each well of a 96-well pate. After 4 hours for which the cells were attached to the plate, the serially diluted drug was added to each well. After 72 hours, the cells were fixed by methanol/acetone (50/50, v/v), and the decrease of HCV proteins was measured by using HCV antibody obtained as above. The extent of decrease was estimated in percentage based on the control containing no drug, and the concentration of drug at which 50% of proteins was decreased was determined to be IC50.

[1] = Hepatitis C virus, 72 h, concentration at which 50% of HCV proteins was decreased, Table 2, read-out: IC50
[2] = Hepatitis C virus, 72 h, decrease of HCV proteins measured by HCV antibody, Table 1, read-out: Level (IC50 values classified)
[3] = concentration at which 50% of HCV proteins was decreased, Table 2, read-out: IC50

Row | SMILES | IC50 [1] [nM] | IC50 [2] [nM] | IC50 [3] [nM]
1 | CC1=C(C(=O)OCCc2c(F)cccc2F)C(CF)NC(=S)N1 (stereo not drawn) [75′, 4-fluoromethyl-6-methyl-2-thioxo-1,2,3,4-tetrahydro-pyrimidine-5-carboxylic acid 2-(2,6-difluoro-phenyl)-ethyl ester] | 2600 | 1000 to 10000 | 
2 | CC1=C(C(=O)OCCOc2ccccc2)CNC(=S)N1 [Compound 163, 6-methyl-2-thioxo-1,2,3,4-tetrahydro-pyrimidine-5-carboxylic acid 2-phenoxy-ethyl ester] | 2500 | 1000 to 10000 | 
3 | CC1=C(C(=O)OCCc2ccc(F)c(C)c2)C(CO)NC(=S)N1 (stereo not drawn) [66″, 4-hydroxymethyl-6-methyl-2-thioxo-1,2,3,4-tetrahydro-pyrimidine-5-carboxylic acid 2-(4-fluoro-3-methyl-phenyl)-ethyl ester] | 700 | < 1000 | 
4 | CC1=C(C(=O)OC2CCCCC2)CNC(=S)N1 [Compound 37, 6-methyl-2-thioxo-1,2,3,4-tetrahydro-pyrimidine-5-carboxylic acid cyclohexyl ester] | 4000 | 1000 to 10000 | 
5 | COc1ccc(COC(=O)C2=C(C)NC(=S)NC2)cc1C [Compound 176, 6-methyl-2-thioxo-1,2,3,4-tetrahydro-pyrimidine-5-carboxylic acid 4-methoxy-3-methyl-benzyl ester] | 2700 | 1000 to 10000 | 
6 | C#CCCOC(=O)C1=C(C)NC(=S)NC1 [Compound 129, 6-methyl-2-thioxo-1,2,3,4-tetrahydro-pyrimidine-5-carboxylic acid but-3-inyl ester] |  |  | > 100000
7 | CC#CCCOC(=O)C1=C(C)NC(=S)NC1 [Compound 160, 6-methyl-2-thioxo-1,2,3,4-tetrahydro-pyrimidine-5-carboxylic acid pent-3-inyl ester] |  |  | 12000
8 | CCOCC#CCOC(=O)C1=C(C)NC(=S)NC1 [Compound 236, 6-methyl-2-thioxo-1,2,3,4-tetrahydro-pyrimidine-5-carboxylic acid 4-ethoxy-but-2-inyl ester] |  |  | 14000
9 | CCN(c1ccc(CCOC(=O)C2=C(C)NC(=S)NC2CO)cc1[N+](=O)[O-])C1CC1 (stereo not drawn) [94″, 4-Hydroxymethyl-6-methyl-2-thioxo-1,2,3,4-tetrahydro-pyrimidine-5-carboxylic acid 2-[4-(cyclopropyl-ethyl-amino)-3-nitro-phenyl]-ethyl ester] | 800 | < 1000 | 
10 | CC1=C(C(=O)O[C@H](C)c2ccccc2)CNC(=S)N1 [Compound 23, 6-methyl-2-thioxo-1,2,3,4-tetrahydro-pyrimidine-5-carboxylic acid (R)-1-phenyl-ethyl ester] | 5400 | 1000 to 10000 | 
11 | CC1=C(C(=O)OCCCCCCCCCC(=O)O)CNC(=S)N1 [20′, 6-methyl-2-thioxo-1,2,3,4-tetrahydro-pyrimidine-5-carboxylic acid 9-carboxy-nonyl ester] | 27000 | > 20000 | 
12 | CC1=C(C(=O)OCCc2ccc(Cl)c(C(F)(F)F)c2)C(CO)NC(=S)N1 (stereo not drawn) [67″, 4-hydroxymethyl-6-methyl-2-thioxo-1,2,3,4-tetrahydro-pyrimidine-5-carboxylic acid 2-(4-chloro-3-trifluoromethyl-phenyl)-ethyl ester] | < 400 | < 1000 | 
13 | CC(=O)OCC1NC(=S)NC(C)=C1C(=O)OCCCc1ccsc1 (stereo not drawn) [22″, 4-acetoxymethyl-6-methyl-2-thioxo-1,2,3,4-tetrahydro-pyrimidine-5-carboxylic acid 3-thiophen-3-yl-propyl ester] | 43000 | > 20000 | 
14 | CC1=C(C(=O)OCCCc2cccs2)C(CO)NC(=S)N1 (stereo not drawn) [4″, 4-hydroxymethyl-6-methyl-2-thioxo-1,2,3,4-tetrahydro-pyrimidine-5-carboxylic acid 3-thiophen-2-yl-propyl ester] | 2500 | 1000 to 10000 | 
15 | CC1=C(C(=O)OCCc2c(F)cccc2Cl)C(CO)NC(=S)N1 (stereo not drawn) [59″, 4-hydroxymethyl-6-methyl-2-thioxo-1,2,3,4-tetrahydro-pyrimidine-5-carboxylic acid 2-(2-chloro-6-fluoro-phenyl)-ethyl ester] | 2500 | 1000 to 10000 | 
16 | CC1=C(C(=O)OCC2CCCCC2)C(CF)NC(=S)N1 (stereo not drawn) [51′, 4-fluoromethyl-6-methyl-2-thioxo-1,2,3,4-tetrahydro-pyrimidine-5-carboxylic acid cyclohexylmethyl ester] | 5400 | 1000 to 10000 | 
17 | CC1=C(C(=O)SCc2ccco2)C(CF)NC(=S)N1 (stereo not drawn) [39′, 4-fluoromethyl-6-methyl-2-thioxo-1,2,3,4-tetrahydro-pyrimidine-5-carbothioic acid S-furan-2-ylmethyl ester] | 2600 | 1000 to 10000 | 
18 | CC1=C(C(=O)OCC=Cc2ccccc2)CNC(=S)N1 [Compound 54, 6-methyl-2-thioxo-1,2,3,4-tetrahydro-pyrimidine-5-carboxylic acid 3-phenyl-allyl ester] | < 500 | < 1000 | 
19 | CC1=C(C(=O)OCCCc2ccc(OCc3ccccc3)cc2)CNC(=S)N1 [Compound 108, 6-methyl-2-thioxo-1,2,3,4-tetrahydro-pyrimidine-5-carboxylic acid 3-(4-benzyloxy-phenyl)-propyl ester] | < 400 | < 1000 | 
20 | COc1ccc(Cl)cc1COC(=O)C1=C(C)NC(=S)NC1CF (stereo not drawn) [36′, 4-fluoromethyl-6-methyl-2-thioxo-1,2,3,4-tetrahydro-pyrimidine-5-carboxylic acid 5-chloro-2-methoxy-benzyl ester] | 1700 | 1000 to 10000 | 
21 | CC1=C(C(=O)OCCc2ccsc2)C(C(F)(F)F)NC(=S)N1 (stereo not drawn) [8′, 6-methyl-2-thioxo-4-trifluoromethyl-1,2,3,4-tetrahydro-pyrimidine-5-carboxylic acid 2-thiophen-3-yl-ethyl ester] | 21000 | > 20000 | 
22 | COCC1NC(=S)NC(C)=C1C(=O)OCCc1ccsc1 (stereo not drawn) [2″, 4-methoxymethyl-6-methyl-2-thioxo-1,2,3,4-tetrahydro-pyrimidine-5-carboxylic acid 2-thiophen-3-yl-ethyl ester] | 35000 | > 20000 | 
23 | CC1=C(C(=O)OCc2ccc(Br)cc2)CNC(=S)N1 [Compound 60, 6-methyl-2-thioxo-1,2,3,4-tetrahydro-pyrimidine-5-carboxylic acid 4-bromo-benzyl ester] | < 500 | < 1000 | 
24 | CC1=C(C(=O)OCc2ccc(-c3cnc(C)s3)s2)CNC(=S)N1 [Compound 221, 6-methyl-2-thioxo-1,2,3,4-tetrahydro-pyrimidine-5-carboxylic acid 5-(2-methyl-thiazol-5-yl)-thiophen-2-ylmethyl ester] | 2500 | 1000 to 10000 | 
25 | CCOC(=O)COC(=O)OCC1NC(=S)NC(C)=C1C(=O)OCCc1cccc([N+](=O)[O-])c1 (stereo not drawn) [83″, 4-ethoxycarbonylmethoxycarbonyloxymethyl-6-methyl-2-thioxo-1,2,3,4-tetrahydro-pyrimidine-5-carboxylic acid 2-(3-nitro-phenyl)-ethyl ester] | 6100 | 1000 to 10000 | 
26 | CSCCCOC(=O)C1=C(C)NC(=S)NC1CO (stereo not drawn) [29″, 4-hydroxymethyl-6-methyl-2-thioxo-1,2,3,4-tetrahydro-pyrimidine-5-carboxylic acid 3-methylsulfanyl-propyl ester] | > 100000 | > 20000 | 
27 | CC1=C(C(=O)OCc2cccc(C)c2)CNC(=S)N1 [Compound 90, 6-methyl-2-thioxo-1,2,3,4-tetrahydro-pyrimidine-5-carboxylic acid 3-methyl-benzyl ester] | 400 | < 1000 | 
28 | CC1=C(C(=O)OCc2ccc(Br)s2)CNC(=S)N1 [Compound 203, 6-methyl-2-thioxo-1,2,3,4-tetrahydro-pyrimidine-5-carboxylic acid 5-bromo-thiophen-2-ylmethyl ester] | < 400 | < 1000 | 
29 | C=CCOCC#CCOC(=O)C1=C(C)NC(=S)NC1 [Compound 245, 6-methyl-2-thioxo-1,2,3,4-tetrahydro-pyrimidine-5-carboxylic acid 4-allyloxy-but-2-inyl ester] |  |  | 2700
